Source: ChEMBL document CHEMBL1201862, “PubChem BioAssay data set” (2004)
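48-hour exposure; five concentrations; linearly interpolated endpoints. Here, GI50 denotes the concentration required for 50% inhibition of growth.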 The source made the active and inactive calls. No stated cut-off is given here; in the data, active = GI50 up to about 1.1 µM and inactive = higher.

Tests used:
Assay in all cases: NCI-60 cell line screen, 48 h
MDA-MB-435 = test system: MDA-MB-435
786-0 = test system: 786-0
NCI/ADR-RES = test system: NCI/ADR-RES
SF-539 = test system: SF-539
SNB-19 = test system: SNB-19
UO-31 = test system: UO-31
COLO 205 = test system: COLO 205
U-251 = test system: U-251
HCC 2998 = test system: HCC 2998
NCI-H23 = test system: NCI-H23
SF-295 = test system: SF-295
SF-268 = test system: SF-268
CCRF-CEM = test system: CCRF-CEM
A549 = test system: A549
M14 = test system: M14
MDA-MB-231 = test system: MDA-MB-231
SK-MEL-5 = test system: SK-MEL-5
HCT-116 = test system: HCT-116
A498 = test system: A498
DU-145 = test system: DU-145

| SMILES | GI50 (MDA-MB-435) | GI50 (786-0) | GI50 (NCI/ADR-RES) | GI50 (SF-539) | GI50 (SNB-19) | GI50 (UO-31) | GI50 (COLO 205) | GI50 (U-251) | GI50 (HCC 2998) | GI50 (NCI-H23) | GI50 (SF-295) | GI50 (SF-268) | GI50 (CCRF-CEM) | GI50 (A549) | GI50 (M14) | GI50 (MDA-MB-231) | GI50 (SK-MEL-5) | GI50 (HCT-116) | GI50 (A498) | GI50 (DU-145) |
| --- | --- | --- | --- | --- | --- | --- | --- | --- | --- | --- | --- | --- | --- | --- | --- | --- | --- | --- | --- | --- |
| COC(CN(C(=O)c1ccccc1)C1CCC2(SCCS2)c2[nH]c3ccccc3c21)OC (stereo not given) | 15.6 µM (inactive) | 37 µM (inactive) | 18.1 µM (inactive) | 63.1 µM (inactive) | 22.4 µM (inactive) | 16 µM (inactive) | 21.9 µM (inactive) | 25.9 µM (inactive) | 30.5 µM (inactive) | 58.6 µM (inactive) | 3.01 µM (inactive) | > 100 µM (inactive) | 44.2 µM (inactive) | 30.7 µM (inactive) | 30.7 µM (inactive) | 28.9 µM (inactive) | 26 µM (inactive) | 32.3 µM (inactive) | 46.6 µM (inactive) | 93.3 µM (inactive) |
| CC1=NN(C(=O)c2ccccc2O)C(=O)/C1=C/c1ccc([N+](=O)[O-])cc1 | 0.106 µM (active) | 0.299 µM (active) | 0.664 µM (active) | 0.0951 µM (active) | 0.0782 µM (active) | 0.103 µM (active) | 16.5 µM (inactive) | 0.0991 µM (active) | 1.85 µM (inactive) | 0.177 µM (active) | 0.131 µM (active) | 0.0855 µM (active) | 0.407 µM (active) | 0.0931 µM (active) | 0.437 µM (active) | 26.9 µM (inactive) | 0.239 µM (active) | 0.116 µM (active) | 0.0419 µM (active) | 0.481 µM (active) |
| Cc1ccc2occ/c(=N\Nc3ccccc3)c2c1 | 17.9 µM (inactive) | 21.2 µM (inactive) | 39 µM (inactive) | > 100 µM (inactive) | > 100 µM (inactive) | 70.8 µM (inactive) | 41.1 µM (inactive) | 66.1 µM (inactive) | > 100 µM (inactive) | 28.1 µM (inactive) | 32.2 µM (inactive) | > 100 µM (inactive) | > 100 µM (inactive) | 57 µM (inactive) | 43 µM (inactive) | 88.5 µM (inactive) | 41.5 µM (inactive) | 47.2 µM (inactive) | 76.6 µM (inactive) | 37.8 µM (inactive) |
| CC(N)(Cc1c[nH]c2ccccc12)C(=O)O (stereo not given) | > 100 µM (inactive) | > 100 µM (inactive) | > 100 µM (inactive) | > 100 µM (inactive) | > 100 µM (inactive) | > 100 µM (inactive) | > 100 µM (inactive) | > 100 µM (inactive) | > 100 µM (inactive) | > 100 µM (inactive) | > 100 µM (inactive) | > 100 µM (inactive) | > 100 µM (inactive) | > 100 µM (inactive) | > 100 µM (inactive) | > 100 µM (inactive) | > 100 µM (inactive) | > 100 µM (inactive) | > 100 µM (inactive) | > 100 µM (inactive) |
| CC(C)(C)c1nc2c(o1)/C(=N\c1ccc(F)cc1)c1ccccc1C2=O | 2.05 µM (inactive) | 27.2 µM (inactive) | 6.73 µM (inactive) | 4.6 µM (inactive) | 8.24 µM (inactive) | 4.59 µM (inactive) | 15.7 µM (inactive) | 3.48 µM (inactive) | 9.12 µM (inactive) | 2.26 µM (inactive) | 6.1 µM (inactive) | 10.6 µM (inactive) | > 100 µM (inactive) | 6.49 µM (inactive) | 2.96 µM (inactive) | 30.2 µM (inactive) | 1.7 µM (inactive) | 5.12 µM (inactive) | 27.4 µM (inactive) | 10.4 µM (inactive) |
| NC(CCC(=O)O)C(=O)NC(Cc1ccc(N(CCCl)CCCl)cc1)C(=O)O (stereo not given) | > 100 µM (inactive) | > 100 µM (inactive) | > 100 µM (inactive) | > 100 µM (inactive) | > 100 µM (inactive) | > 100 µM (inactive) | > 100 µM (inactive) | > 100 µM (inactive) | > 100 µM (inactive) | > 100 µM (inactive) | > 100 µM (inactive) | > 100 µM (inactive) | > 100 µM (inactive) | > 100 µM (inactive) | > 100 µM (inactive) | > 100 µM (inactive) | > 100 µM (inactive) | > 100 µM (inactive) | > 100 µM (inactive) | > 100 µM (inactive) |
| N/C(=N/O)c1cn(C2OC(CO)C(O)C2O)c2ncnc(NO)c12 (stereo not given) | 0.0962 µM (active) | 0.0556 µM (active) | 0.203 µM (active) | 0.117 µM (active) | 0.514 µM (active) | 0.084 µM (active) | 0.0771 µM (active) | 0.226 µM (active) | 0.147 µM (active) | 0.216 µM (active) | 0.773 µM (active) | 0.164 µM (active) | 0.0165 µM (active) | 0.126 µM (active) | 0.126 µM (active) | 0.0344 µM (active) | 0.151 µM (active) | 0.0337 µM (active) | 0.425 µM (active) | 0.112 µM (active) |
| CCCC1NC(=O)C(CC(C)C)NC(=O)c2cccc(n2)C(=O)NC(CC(C)C)C(=O)NC(CCC)C(=O)NC(C(=O)OC)CCCCNC1=O (stereo not given) | 35.4 µM (inactive) | > 100 µM (inactive) | > 100 µM (inactive) | 22 µM (inactive) | 53.5 µM (inactive) | > 100 µM (inactive) | 40.6 µM (inactive) | 32.4 µM (inactive) | 11.1 µM (inactive) | 47.9 µM (inactive) | 51.1 µM (inactive) | 28.2 µM (inactive) | 15.6 µM (inactive) | > 100 µM (inactive) | 91 µM (inactive) | 18.7 µM (inactive) | > 100 µM (inactive) | 34 µM (inactive) | > 100 µM (inactive) | > 100 µM (inactive) |
| O=C1NC(=O)C(c2c[nH]c3cc(Br)ccc23)=C1c1cn(C(c2ccccc2)(c2ccccc2)c2ccccc2)cn1 | 6.24 µM (inactive) | 8.85 µM (inactive) | 27.2 µM (inactive) | 14.8 µM (inactive) | 23.9 µM (inactive) | 14.8 µM (inactive) | 12.3 µM (inactive) | 10.7 µM (inactive) | 12.6 µM (inactive) | 11.3 µM (inactive) | 18.1 µM (inactive) | 13.8 µM (inactive) | 5.45 µM (inactive) | 7.24 µM (inactive) | 13.2 µM (inactive) | 5.97 µM (inactive) | 10.5 µM (inactive) | 10.5 µM (inactive) | 16.8 µM (inactive) | 21.6 µM (inactive) |
| CCOc1cc(C2SCC(=O)N2c2nc3cc4sc(N5C(=O)CSC5c5ccc(O)c(OCC)c5)nc4cc3s2)ccc1O (stereo not given) | 29.9 µM (inactive) | 31.6 µM (inactive) | 8.2 µM (inactive) | 15.7 µM (inactive) | 41.3 µM (inactive) | 21.4 µM (inactive) | 4.8 µM (inactive) | 26.5 µM (inactive) | > 100 µM (inactive) | 9.59 µM (inactive) | > 100 µM (inactive) | > 68.2 µM (inactive) | 4.16 µM (inactive) | 6.98 µM (inactive) | > 100 µM (inactive) | > 48.5 µM (inactive) | 59.2 µM (inactive) | 20.9 µM (inactive) | 48.6 µM (inactive) | 17.8 µM (inactive) |
| O=C1C(c2ccccc2)=C(c2ccccc2)C1(Cl)Cl | 2.43 µM (inactive) | 2.69 µM (inactive) | 3.2 µM (inactive) | 3.05 µM (inactive) | 16.7 µM (inactive) | 3.61 µM (inactive) | 2.59 µM (inactive) | 2.84 µM (inactive) | 5.19 µM (inactive) | 2.75 µM (inactive) | 9.89 µM (inactive) | 2.99 µM (inactive) | 1.01 µM (active) | 11.4 µM (inactive) | 2.22 µM (inactive) | 3.28 µM (inactive) | 2.82 µM (inactive) | 1.5 µM (inactive) | 5.21 µM (inactive) | 11.7 µM (inactive) |
